Results from PMC6286365 (Scientific Reports, 2018).
Entries after “also recorded” stand apart in the source; their conditions may differ.

What was measured:
primary astrocytes = test: Inhibition of EV release from primary astrocytes (FBS withdrawal, nanoparticle tracking); assay type: cell-based, rat; settings: 2 h treatment, dose range of concentrations
Protocol: Independent laboratories have shown that pharmacological and genetic inhibition of nSMase2 blocks EV secretion from glial cells. […] Two hours after treatment, EVs were isolated from the media and quantified by nanoparticle tracking analysis. […] Cells were fixed and immunofluorescence labeling for GFAP was performed.
Media was collected after 2 h incubation and centrifuged at 2700 × g for 15 min at 4 °C. Supernatant was collected and the number of extracellular vesicles (EVs) was quantified using ZetaView Nanoparticle Tracker. The mean concentration of EVs/mL (±SEM) was calculated from 4 replicate experiments. […] Astrocytes grown in complete medium were used as no treatment control. Cells were fixed and stained with anti-GFAP antibody (1:500, Sigma). Fluorescence intensity was measured using Image J. (C) Quantitation of fluorescence in (B). Bar graph represents background corrected mean fluorescence intensity measured from 100 astrocytes per condition. Error bars represent standard error of mean. One-way ANOVA followed by Tukey’s posthoc test was performed.
Potential inhibition of test compounds on EV release from primary astrocytes was carried out as previously described (Dickens et al., 2017). Briefly, rat primary astrocytes were seeded onto 6-well plates at a density of 20,000 cells/well. Twenty-four hours after seeding, astrocytes were washed with PBS and the medium changed to media without FBS. Absence of FBS mimics a trophic factor withdrawal stimulus causing EVs to be released from astrocytes via an nSMase2-dependent pathway. […] The supernatant was collected and the number of EVs quantified using ZetaView Nanoparticle Tracker (Particle Metrix GmBH, Meerbusch, Germany) and the corresponding ZetaVeiw software (8.03.04.01). Nanosphere size standard 100 nm (Thermo Scientific) was used to calibrate the instrument prior to sample readings. […] For each sample 1 mL of the supernatant was injected into the sample-carrier cell and the particle count measured at 5 positions, with 2 cycles of reading per position. […] Mean concentration of EVs/mL (±SEM) was calculated from 4 replicates.

GFAP-GFP mice [1] = test: Striatal IL-1β brain inflammation model: GFP-labeled astrocyte-derived EVs in plasma; assay type: in vivo, mouse; settings: 10 mg/kg IP 0.5 h before IL-1β; 2 h post IL-1β
Protocol: As we have previously shown[11],[18], striatal injection of IL-1β in mice expressing GFP-GFAP in astroglia triggers a release of GFP-labelled EVs that rapidly enter into plasma, resulting in cytokine upregulation in liver and peripheral immune cell migration into brain[11]. […] There were two groups of mice: the first group was sacrificed 2 h after IL-1β administration by heart puncture, and GFP-labeled circulating EVs were measured with liver cytokines. […] Counting of astrocyte-released EV (GFP+) from blood and liver cytokine analysis was conducted by single injection of DPTIP. Although release of EVs from astrocytes can be initiated immediately after intracranial injection of IL-1β, infiltration of neutrophils in brain parenchyma occurred 12h-24h after the IL-1β injection. […] Western analysis using the isolated exosomal fraction confirmed the presence of CD63 (transmembrane protein), TSG101 (cytosolic protein) and Flotilin-1 (lipid raft associated protein), commonly used EV markers[19],[20]. The GFP signal was an indication that these EVs originated in brain[11] while lack of mitofilin and α-actinin signals indicated the vesicles were not of mitochondrial[21] or cytoskeletal[22] origin respectively (Fig. 6B).
(§1) Compounds were given 0.5 h before IL-1β dosing. One group of mice was sacrificed 2 h after IL-1β administration to determine effects of the various treatments on extracellular vesicles (EVs) releases from brain and liver cytokine analysis. […] (C) Liver cytokine levels under different treatments as measured by qRT-PCR of RNA isolated from fresh frozen liver tissue. Samples were analyzed in triplicate. **p < 0.01 and *p < 0.05 compared to saline control; ^##p < 0.01 and ^#p < 0.05 compared to IL1-β group. (D) Neutrophil levels in brain as measured by immunohistochemistry using coronal brain sections and Ly6b antibody. (E) Quantitation of (D); **p < 0.01 compared to saline control; ^##p < 0.01 compared to IL1-β group. […]

GFAP-GFP mice [2] = test: Striatal IL-1β brain inflammation model: liver cytokines by qRT-PCR; assay type: in vivo, mouse; settings: 10 mg/kg IP; 2 h post IL-1β
Protocol: As we have previously shown[11],[18], striatal injection of IL-1β in mice expressing GFP-GFAP in astroglia triggers a release of GFP-labelled EVs that rapidly enter into plasma, resulting in cytokine upregulation in liver and peripheral immune cell migration into brain[11]. […] There were two groups of mice: the first group was sacrificed 2 h after IL-1β administration by heart puncture, and GFP-labeled circulating EVs were measured with liver cytokines. […] Counting of astrocyte-released EV (GFP+) from blood and liver cytokine analysis was conducted by single injection of DPTIP. Although release of EVs from astrocytes can be initiated immediately after intracranial injection of IL-1β, infiltration of neutrophils in brain parenchyma occurred 12h-24h after the IL-1β injection. […]
as §1, with “dosing.” for “dosing. One group of mice was sacrificed 2 h after IL-1β administration to determine effects of the various treatments on extracellular vesicles (EVs) releases from brain and liver cytokine analysis.”

COc1cc(-c2nc(-c3cccs3)c(-c3ccccc3)[nH]2)cc(OC)c1O [DPTIP, 2,6-Dimethoxy-4-(5-Phenyl-4-Thiophen-2-yl-1H-Imidazol-2-yl)-Phenol]
effect on EV release from primary astrocytes (primary astrocytes): dose-dependently inhibited EV release; also recorded: inhibited EV release from astrocytes in a dose dependent manner
reduction of number of astrocyte-derived EVs (GFAP-GFP mice [1]): 51 ± 13%
effect on upregulation of liver cytokines upon IL-1β treatment (GFAP-GFP mice [2]): reduction of cytokine upregulation in liver; also recorded: inhibited
